According to ChEMBL document CHEMBL1201862, “PubChem BioAssay data set” (2004):
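Grown in 96-well plates, cells were treated for 48 hours with each compound at five concentrations. Insufficient inhibition: endpoint recorded as highest concentration tested. GI50 marks 50% less growth.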 The source made the active and inactive calls. Cut-off read from the data, not from the text of the source: active = GI50 up to about 1.1 µM and inactive = higher.

Assays:
Test in all cases: NCI anticancer screen, dose series, 48 h
[1] = tested on: RPMI-8226
[2] = tested on: TK-10
[3] = tested on: M14
[4] = tested on: HL-60
[5] = tested on: T47D
[6] = tested on: IGROV-1
[7] = tested on: SF-268
[8] = tested on: SNB-75
[9] = tested on: EKVX
[10] = tested on: HT-29
[11] = tested on: K562
[12] = tested on: DU-145
[13] = tested on: SW-620
[14] = tested on: HOP-92
[15] = tested on: ACHN
[16] = tested on: NCI-H522
[17] = tested on: MCF7
[18] = tested on: SF-295
[19] = tested on: SK-OV-3

| Structure (SMILES) | GI50 [1] | GI50 [2] | GI50 [3] | GI50 [4] | GI50 [5] | GI50 [6] | GI50 [7] | GI50 [8] | GI50 [9] | GI50 [10] | GI50 [11] | GI50 [12] | GI50 [13] | GI50 [14] | GI50 [15] | GI50 [16] | GI50 [17] | GI50 [18] | GI50 [19] |
| --- | --- | --- | --- | --- | --- | --- | --- | --- | --- | --- | --- | --- | --- | --- | --- | --- | --- | --- | --- |
| O=c1[nH]c(Nc2nc3ccccc3[nH]2)nc(O)c1Cc1ccccc1 | > 100 µM (inactive) | > 100 µM (inactive) | > 100 µM (inactive) | > 100 µM (inactive) | > 100 µM (inactive) | > 100 µM (inactive) | > 100 µM (inactive) | 24 µM (inactive) | > 100 µM (inactive) | > 100 µM (inactive) | > 100 µM (inactive) | > 100 µM (inactive) | > 100 µM (inactive) | 0.193 µM (active) | 61 µM (inactive) | > 100 µM (inactive) |  |  |  |
| CNc1nc(N)nc(Nc2ccc(I)cc2)c1N=O | > 100 µM (inactive) | > 100 µM (inactive) |  | 62.4 µM (inactive) |  | > 100 µM (inactive) | > 100 µM (inactive) | > 100 µM (inactive) | > 100 µM (inactive) | 24 µM (inactive) | 68.2 µM (inactive) | > 100 µM (inactive) | > 100 µM (inactive) |  | > 100 µM (inactive) | 40 µM (inactive) | > 100 µM (inactive) | > 100 µM (inactive) |  |
| C[n+]1c(-c2ccccc2)cc2/c(=C\c3ccc([N+](=O)[O-])cc3)c3ccccc3n21 |  | 9.06 µM (inactive) | 5.24 µM (inactive) | 0.764 µM (active) |  | 1.39 µM (inactive) | 3.47 µM (inactive) | 3.18 µM (inactive) | 7.29 µM (inactive) | 0.957 µM (active) |  | 1.74 µM (inactive) | 1.79 µM (inactive) | 1.66 µM (inactive) | 3.1 µM (inactive) | 0.385 µM (active) | 2.1 µM (inactive) | 3.21 µM (inactive) | 4.8 µM (inactive) |
| C/C(=N\Nc1nc2ccccc2n1C)c1cnccn1 | < 0.0297 µM (active) | 0.0703 µM (active) | 0.064 µM (active) | 0.0178 µM (active) | 0.0702 µM (active) | 0.0435 µM (active) | 0.0726 µM (active) | 5.13 µM (inactive) | 0.0424 µM (active) | 0.0418 µM (active) | < 0.0316 µM (active) |  | 0.0418 µM (active) | 0.227 µM (active) | 0.065 µM (active) | 0.129 µM (active) | 0.0246 µM (active) | 0.367 µM (active) | 0.292 µM (active) |
| O=C(Cn1cc(-c2ccccc2)nn1)NC1CCCCC1 | > 100 µM (inactive) | > 100 µM (inactive) | > 100 µM (inactive) | > 100 µM (inactive) |  | > 100 µM (inactive) | > 100 µM (inactive) | > 100 µM (inactive) | > 100 µM (inactive) | > 100 µM (inactive) | > 100 µM (inactive) | > 100 µM (inactive) | > 100 µM (inactive) | > 100 µM (inactive) | > 100 µM (inactive) | > 100 µM (inactive) | > 100 µM (inactive) | > 100 µM (inactive) |  |
| COC(=O)[C@@]12CCCC(=O)[C@@H]1[C@H]1CCCC[C@H]12 | > 100 µM (inactive) | > 100 µM (inactive) | > 100 µM (inactive) |  |  | > 100 µM (inactive) | > 100 µM (inactive) | > 100 µM (inactive) | > 100 µM (inactive) | > 100 µM (inactive) | 35.8 µM (inactive) | > 100 µM (inactive) | > 100 µM (inactive) | 32.1 µM (inactive) | > 100 µM (inactive) | > 100 µM (inactive) | > 100 µM (inactive) | > 100 µM (inactive) | > 100 µM (inactive) |
| Cc1nc(C(N)=S)sc1/C(CC(=O)C(=O)Nc1cccc2ccc(O)cc12)=N\NC(=O)c1ccncc1 |  | 77.8 µM (inactive) | > 100 µM (inactive) | 25.6 µM (inactive) |  | 53.7 µM (inactive) | 82.8 µM (inactive) | > 100 µM (inactive) | > 100 µM (inactive) | 37.8 µM (inactive) |  | 55.3 µM (inactive) | > 100 µM (inactive) | 31.6 µM (inactive) | > 100 µM (inactive) | 34.5 µM (inactive) | 39.7 µM (inactive) | > 100 µM (inactive) | > 100 µM (inactive) |
